Reference: the METLIN SMRT retention time set (Domingo-Almenara et al. 2019)

Test: gradient 5% acetonitrile 3 min, to 50% in 2 min, to 85% in 15 min, held 3 min, 100 µL/min
Details: column: Zorbax Extend-C18 2.1 x 50 mm; eluents: water / acetonitrile, 0.1% formic acid
How it was run: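 Retention times of pure standards were taken from adduct peaks that were selected by computer and manually inspected. Over 3 months, mixtures of ~100 molecules were run by HPLC–quadrupole time-of-flight mass spectrometry in positive and negative ionization mode. The Zorbax Extend-C18 column (2.1 × 50 mm, 1.8 μm) ran at 100 μL/min in water and acetonitrile, each containing 0.1% formic acid, with 40 μL dead volume and 900 μL dwell volume.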

Row | RP-LC retention time [s] | SMILES
1 | 726 | COc1ccc(OCC(=O)N2CCC(Nc3cccnc3)C2)cc1 (centres undefined)
2 | 1000 | CCOC(=O)c1ccc(NC(=O)C2C(=O)N(C)C3(C)CC2c2ccccc2O3)cc1 (centres undefined)
3 | 653 | CCC(C)NC(=O)CCc1c(-c2ccc(Cl)cc2)nc2ccccn12 (centres undefined)
4 | 609 | COCC1CN(S(=O)(=O)c2cccc(C#N)c2)CC12CCNCC2 (centres undefined)
5 | 756 | CCn1ccc(C(=O)N2CCCn3nc(-c4ccc(OC)cc4)cc3C2)n1
6 | 819 | CCn1cc2c(n1)c(=O)n(Cc1ccccc1)c(=O)n2CC(=O)NCc1ccccc1
7 | 1170 | COc1cccc(-n2c(=O)c(C(=O)NCc3cc(F)cc(F)c3)c(O)c3cccnc32)c1
8 | 718 | O=C(Cc1nnc(-c2ccncc2)o1)NCc1ccc(C(F)(F)F)cc1
9 | 731 | CCC(C)NC(=O)N1C[C@@H]2CN(S(=O)(=O)c3ccc(F)cc3)C[C@H](C1)O2 (some centres undefined)
10 | 699 | COC(=O)c1cc2c([nH]c1=O)CC(c1ccc(OC)cc1OC)CC2=O (centres undefined)
11 | 796 | CCC(=O)N1CCc2cc(C)c(S(=O)(=O)NC(C)C)cc21
12 | 625 | O=C(Nc1ccc(-c2nnc3n2CCCC3)cc1)c1cc(C2CC2)[nH]n1
13 | 1030 | CC1CCN(c2cc(-n3cnc(C(=O)NC4CCCCC4)c3)ncn2)CC1
14 | 706 | O=C(CCCSc1ccc(NC(=O)c2cccs2)nn1)Nc1cnc2ccccc2c1
15 | 923 | COc1ccccc1-c1nc(-c2ccc3nnn(C)c3c2)no1
16 | 893 | COc1ccc(C(C)NC(=O)c2nnc(-c3ccc(S(=O)(=O)N(C)C)cc3)o2)cc1 (centres undefined)
17 | 951 | COc1ccc(-c2noc(NC3CCCC3)n2)cc1
18 | 757 | O=C(N[C@H]1C[C@@H]2C[C@H]1CN2C(=O)c1ccccc1Cl)c1ccccc1
19 | 577 | Cc1ccc2cc(CCC(=O)NCCCN(C)C)c(=O)[nH]c2c1
20 | 674 | CCN(CC)c1ncc2c(n1)CCC(C(=O)Nc1ccc(OC)cc1C)C2 (centres undefined)
21 | 671 | Cc1nc2cccnc2n1C1CCN(C(=O)Nc2ccc(Br)cc2F)CC1
22 | 835 | c1csc(-c2[nH]ncc2CN2CCN(c3cnn4cnnc4c3)CC2)c1

Row | RP-LC retention time [s] | SMILES
23 | 627 | NC(=O)C1CCN(C(=O)CSc2nc3ccccc3s2)CC1
24 | 946 | Clc1ccc(Nc2c(-c3ccccc3Cl)nc3ccc(Cl)cn23)cc1
25 | 680 | Cc1cc(C(=O)N2CC(C(=O)NCCc3ccc(F)cc3)C2)no1
26 | 916 | COc1ccc(OC)c(S(=O)(=O)N2CCCC(C)(C(=O)NCc3cccc(F)c3)C2)c1 (centres undefined)
27 | 698 | CCc1cccc(NC(=O)c2c(C)oc3c2C2=NC(CC)CN2C=N3)c1 (centres undefined)
28 | 608 | CC(C)CN1CCn2cc(C(=O)NCc3ccc(F)cc3F)nc2C1
29 | 804 | COc1ccc(Cl)cc1S(=O)(=O)N1CCC(C(=O)NCCCOC(C)C)CC1
30 | 1160 | COc1ccc(OC)c(-c2csc(-c3nnn(-c4ccc(C)cc4)c3N)n2)c1
31 | 1070 | CCOc1ccc(-c2noc(Cn3cnc4c(cnn4-c4ccc(CC)cc4)c3=O)n2)cc1OC
32 | 953 | COc1ccc(-c2nc3cnccn3c2Nc2cccc(C)c2C)cc1
33 | 997 | O=C(Cc1ccccc1)NCc1nc(-c2ccc3oc(-c4ccccc4)nc3c2)no1
34 | 548 | CN1C(=O)c2cccn2CC1CNC(=O)c1cc(CN2CCOCC2)on1 (centres undefined)
35 | 592 | Cn1ncc2c(N3CCSCC3)nc(C(=O)NCc3ccccn3)nc21
36 | 593 | CCc1nnc2cc(N3CCN(C(=O)Nc4cccc(C)c4)CC3)cnn12
37 | 726 | CCN1CCn2c(nc3cc(C(=O)NCc4ccc(OC(C)C)cc4)ccc32)C1=O
38 | 702 | Cc1ccccc1Nc1c(-c2ccc(N3CCOCC3)cc2)nc2cccc(C)n12
39 | 749 | COc1ccc(OCc2noc(CNC(=O)c3cccnc3)n2)cc1
40 | 1060 | CC(=O)c1ccc(NC(=O)c2cnn3c4c(cnc23)CCCCCC4)cc1
41 | 1210 | O=c1c2sccc2n(Cc2nc(-c3ccc(F)c(Cl)c3)no2)c(=O)n1Cc1ccccc1
42 | 751 | O=C(Cn1nc2nc(Nc3ccc(F)cc3)ccn2c1=O)Nc1ccc(F)cc1
43 | 910 | O=C(CC1COc2ccccc2NC1=O)NCCc1ccc(Cl)cc1 (centres undefined)
44 | 719 | CSc1ccc(-c2nc3cc(C)ccn3c2Nc2ccc3c(c2)OCCO3)cc1

Row | RP-LC retention time [s] | SMILES
45 | 1110 | COc1ccc(S(=O)(=O)N2CCCC(C(=O)Nc3cccc(Br)c3)C2)cc1Cl (centres undefined)
46 | 644 | CC1CN([C@H]2C[C@@H](N=[N+]=[N-])[C@@H](CO)O2)C(=O)NC1=O (some centres undefined)
47 | 652 | CCC(C)NC(=O)c1ccc2c(c1)N(C(=O)NC)CC2 (centres undefined)
48 | 675 | CCc1ccc(NC(=O)C2CCN(c3cncnc3N3CCOCC3)CC2)cc1
49 | 697 | CC(C)NC(=O)c1ccc(-c2nc3cc(NS(=O)(=O)c4ccc(F)cc4F)ccc3n2C)cc1
50 | 687 | O=C(Cn1cnc2nc(N3CCOCC3)ncc2c1=O)NCc1cccc(C(F)(F)F)c1
51 | 1300 | CC(C)(C)c1csc(-c2csc(S(=O)(=O)NCc3ccccc3Cl)c2)n1
52 | 876 | CCCN(CC1CCOC1)C(=O)Nc1cccc(Br)c1 (centres undefined)
53 | 858 | CCOc1ccc(NC(=O)N2CCC3(CC2)NC(=O)c2cc(Cl)ccc2N3C)cc1
54 | 810 | CCn1nc(CNC(=O)C(C)Oc2ccccc2OC)c2ccccc21 (centres undefined)
55 | 829 | COc1cc(NC(=O)Cn2c(C)cc(-c3nnc(C4CC4)o3)c2C)cc(OC)c1
56 | 1360 | Cc1ccc(-c2ncc3c(=O)n(Cc4ccc(Cl)cc4)c(=O)n(C)c3n2)cc1
57 | 666 | COCCC1CCN(C(=O)CN(C)C(=O)c2ccc(C#N)cc2)CC1
58 | 990 | COc1cccc(-n2nnc(-c3nsc(Nc4ccccc4)n3)c2C)c1
59 | 732 | CCOc1ccccc1C(=O)Nc1c(-c2ccc(OC)cc2)nc2cc(C)ccn12
60 | 690 | Cc1nn2c(S(=O)(=O)NCC3CC3)c(C)nc2s1
61 | 922 | Cc1nc(-c2ccc3c(c2)n(CC(=O)N2CCc4ccccc42)c(=O)n3C(C)C)no1
62 | 679 | Cc1ccc(C)c(CNC(=O)c2cc(-c3ccncc3)cn2C)c1
63 | 784 | COc1ccc(N2CCN(C(=O)CN3CCN(Cc4cccc(Cl)c4)C3=O)CC2)cc1
64 | 1200 | Clc1ccc(-c2csc(Cc3nc(-c4ccc5c(c4)OCO5)no3)n2)cc1
65 | 774 | O=C(NC1CCN(c2cc(-c3ccc(F)cc3)[nH]n2)C1)c1cccc(Cl)c1 (centres undefined)
66 | 645 | Cc1noc(-c2ccnc(-n3ncc(C(=O)N4CCN(Cc5ccccc5)CC4)c3C)c2)n1

Row | RP-LC retention time [s] | SMILES
67 | 795 | COc1ccc(N2CCN(C(=O)Cn3cccc3-c3nnc(C4CCC4)o3)CC2)cc1
68 | 782 | COc1cccc(NC(=O)C2CCc3nc(N4CCCCC4)ncc3C2)c1 (centres undefined)
69 | 1140 | CCOC(=O)c1nn(-c2ccc(C)cc2)c(=O)cc1NC(=O)c1cc(Cl)ccc1OC
70 | 794 | COCCN1C(=O)CCc2cc(NS(=O)(=O)c3ccc(OC)c(Cl)c3)ccc21
71 | 822 | CCOC(=O)C1CCN(c2cc3c(cc2NC(=O)CC(C)C)n(C)c(=O)c(=O)n3C)CC1
72 | 789 | Cc1ccc(C)c(NC(=O)CN2CCN(C(=O)Nc3ccc(Br)cc3)CC2=O)c1
73 | 518 | O=C(NCc1ccccn1)C1CCc2sc(C(=O)N3CCCC3)cc2C1 (centres undefined)
74 | 1020 | CCCCN1C(=O)C(C)(C(=O)NCc2cc(F)cc(F)c2)Oc2cccnc21 (centres undefined)
75 | 644 | Cc1noc(C)c1Cn1cccc(S(=O)(=O)N2CCCC2)c1=O
76 | 761 | CCCc1c(C(=O)O)nnn1-c1ccc(C)cc1F
77 | 608 | COc1cccc(OC)c1C(=O)NCCNC(=O)c1ccc(NC(=O)C2CC2)cc1
78 | 825 | CCN(Cc1ccccc1)C(=O)CS(=O)Cc1cnn(-c2ccccc2)c1-n1cccc1 (centres undefined)
79 | 1110 | Cc1ccc(NC(=O)Cn2c(C)nc3c(sc4nc(-c5ccccc5)ccc43)c2=O)cc1F
80 | 881 | O=C(NCCC1CCN(S(=O)(=O)c2ccc(F)cc2)CC1)Nc1ccccc1
81 | 921 | Cc1cccc(CNC(=O)Cn2c(C)cc(-c3nnc(-c4ccccc4)o3)c2C)c1
82 | 622 | CC(Oc1c(Cl)cccc1Cl)C1=NCCN1 (centres undefined)
83 | 554 | O=C(CC(=O)N1CCN(C2CCCCC2)CC1)Nc1ccc2nc3n(c(=O)c2c1)CCCCC3
84 | 792 | O=C(CN1C(=O)CCCc2cc(S(=O)(=O)N3CCCC3)ccc21)NCc1ccc(F)cc1
85 | 780 | CCNC(=O)c1nc(C(=O)NCc2ccc(F)cc2F)cs1
86 | 662 | O=C(Nc1ccc2c(c1)CN(C(=O)c1ccco1)CC2)c1cnccn1
87 | 1010 | Cc1cccc(Sc2nccnc2N2CCCC(C(=O)N3CCCC3)C2)c1 (centres undefined)
88 | 622 | Cc1cc(=O)n(CC(=O)NCc2ccc3c(c2)OCO3)c(N2CCOCC2)n1

Row | SMILES | RP-LC retention time [s]
89 | O=C(c1cc(=O)c2ccccc2o1)N1CC2CC(C1)c1cccc(=O)n1C2 (centres undefined) | 598
